Experiment [1] addresses T1, Streptokinase A (Streptococcus pyogenes serotype M1, UniProt P10520).
T1 sequence (P10520 whole entry): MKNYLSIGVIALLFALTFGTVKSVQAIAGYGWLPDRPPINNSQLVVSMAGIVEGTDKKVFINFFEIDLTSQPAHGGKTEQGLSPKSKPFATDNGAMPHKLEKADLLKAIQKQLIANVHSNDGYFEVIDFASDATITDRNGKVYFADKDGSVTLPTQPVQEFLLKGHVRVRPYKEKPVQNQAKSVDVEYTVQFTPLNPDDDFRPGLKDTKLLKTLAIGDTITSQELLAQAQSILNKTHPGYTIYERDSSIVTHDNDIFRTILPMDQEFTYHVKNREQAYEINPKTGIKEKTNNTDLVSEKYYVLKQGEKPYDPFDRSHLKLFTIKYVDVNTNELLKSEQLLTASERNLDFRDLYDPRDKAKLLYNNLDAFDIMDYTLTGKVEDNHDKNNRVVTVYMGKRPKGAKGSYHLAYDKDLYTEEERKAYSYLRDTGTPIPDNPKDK
The experiment in a line: viability-normalized secreted streptokinase activity reduction – plasminogen activation absorbance, OD405, dose response (AID 1914).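 Further: secreted streptokinase activity via plasminogen activation per viability signal from cell pellet.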 In kind it is functional, Streptococcus pyogenes M1 GAS.

Experiment [2] concerns the target T2, Sentrin-specific protease 8 (Homo sapiens, UniProt Q96LD8).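 Further: luminescence read-out of SENP8 inhibition, dose-response confirmation following an ultra-high-throughput screen.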
T2 sequence (Q96LD8 whole entry): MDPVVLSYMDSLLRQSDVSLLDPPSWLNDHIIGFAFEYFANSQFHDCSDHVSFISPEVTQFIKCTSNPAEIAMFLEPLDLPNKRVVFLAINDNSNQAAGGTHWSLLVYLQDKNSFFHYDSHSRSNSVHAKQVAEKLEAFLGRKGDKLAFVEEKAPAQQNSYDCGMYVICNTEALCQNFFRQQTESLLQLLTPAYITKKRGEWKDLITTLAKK
Type of experiment: functional.

For experiment [3], the target named is T3, Sentrin-specific protease 6 (Homo sapiens, UniProt Q9GZR1).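 Further: Luminescence-based dose-response confirmatory assay of SENP6 inhibition, following up an ultra-high-throughput screen.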
T3 sequence (Q9GZR1 whole entry): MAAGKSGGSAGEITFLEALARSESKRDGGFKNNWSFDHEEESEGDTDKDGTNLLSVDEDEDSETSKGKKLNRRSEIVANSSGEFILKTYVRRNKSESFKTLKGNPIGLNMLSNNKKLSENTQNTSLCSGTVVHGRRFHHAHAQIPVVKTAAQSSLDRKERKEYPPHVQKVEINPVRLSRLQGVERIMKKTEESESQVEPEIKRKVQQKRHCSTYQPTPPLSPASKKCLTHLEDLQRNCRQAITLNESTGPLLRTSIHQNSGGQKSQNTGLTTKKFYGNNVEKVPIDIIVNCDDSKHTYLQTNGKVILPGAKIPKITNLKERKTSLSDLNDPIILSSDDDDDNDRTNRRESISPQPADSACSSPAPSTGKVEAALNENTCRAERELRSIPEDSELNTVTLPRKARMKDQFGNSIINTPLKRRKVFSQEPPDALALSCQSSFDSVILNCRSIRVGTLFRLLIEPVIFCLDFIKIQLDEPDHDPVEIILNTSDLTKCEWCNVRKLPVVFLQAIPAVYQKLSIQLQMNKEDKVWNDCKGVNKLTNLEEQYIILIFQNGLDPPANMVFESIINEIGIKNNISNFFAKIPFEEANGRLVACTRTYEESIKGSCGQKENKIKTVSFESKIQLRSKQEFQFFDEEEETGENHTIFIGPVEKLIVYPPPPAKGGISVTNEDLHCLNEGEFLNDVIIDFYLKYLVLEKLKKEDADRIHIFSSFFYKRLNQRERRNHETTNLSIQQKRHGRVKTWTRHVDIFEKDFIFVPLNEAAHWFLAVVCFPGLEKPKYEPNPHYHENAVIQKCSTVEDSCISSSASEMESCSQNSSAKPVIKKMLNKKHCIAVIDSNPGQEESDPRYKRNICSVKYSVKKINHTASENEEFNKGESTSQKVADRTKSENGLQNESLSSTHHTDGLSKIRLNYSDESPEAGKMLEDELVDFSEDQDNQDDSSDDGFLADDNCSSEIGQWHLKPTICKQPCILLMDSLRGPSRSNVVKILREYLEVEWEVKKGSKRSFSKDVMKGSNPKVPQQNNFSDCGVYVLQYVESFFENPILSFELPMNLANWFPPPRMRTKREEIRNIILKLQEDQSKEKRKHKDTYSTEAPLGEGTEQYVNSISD
In kind it is functional.

The target in experiment [4] is T4, Caspase-3 (Homo sapiens, UniProt P42574).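 Further: Dose-response selectivity test against caspase-3 for candidate inhibitors of sentrin-specific proteases (SENPs).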
T4 sequence (P42574 whole entry): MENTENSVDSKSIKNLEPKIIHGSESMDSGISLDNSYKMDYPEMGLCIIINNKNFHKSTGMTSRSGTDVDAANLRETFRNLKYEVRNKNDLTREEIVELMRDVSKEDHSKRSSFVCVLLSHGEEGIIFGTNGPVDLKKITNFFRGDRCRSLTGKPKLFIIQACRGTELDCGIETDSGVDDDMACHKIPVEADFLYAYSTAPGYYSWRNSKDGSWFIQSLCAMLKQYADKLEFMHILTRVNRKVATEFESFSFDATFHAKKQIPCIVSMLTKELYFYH
Type of experiment: functional.

Experiment [5] has as its target T5, Sentrin-specific protease 7 (Homo sapiens, UniProt Q9BQF6).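 Further: Luminescence-based dose-response confirmation of ultra-high-throughput screening hits, measuring inhibition of SENP7.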
T5 sequence (Q9BQF6 whole entry): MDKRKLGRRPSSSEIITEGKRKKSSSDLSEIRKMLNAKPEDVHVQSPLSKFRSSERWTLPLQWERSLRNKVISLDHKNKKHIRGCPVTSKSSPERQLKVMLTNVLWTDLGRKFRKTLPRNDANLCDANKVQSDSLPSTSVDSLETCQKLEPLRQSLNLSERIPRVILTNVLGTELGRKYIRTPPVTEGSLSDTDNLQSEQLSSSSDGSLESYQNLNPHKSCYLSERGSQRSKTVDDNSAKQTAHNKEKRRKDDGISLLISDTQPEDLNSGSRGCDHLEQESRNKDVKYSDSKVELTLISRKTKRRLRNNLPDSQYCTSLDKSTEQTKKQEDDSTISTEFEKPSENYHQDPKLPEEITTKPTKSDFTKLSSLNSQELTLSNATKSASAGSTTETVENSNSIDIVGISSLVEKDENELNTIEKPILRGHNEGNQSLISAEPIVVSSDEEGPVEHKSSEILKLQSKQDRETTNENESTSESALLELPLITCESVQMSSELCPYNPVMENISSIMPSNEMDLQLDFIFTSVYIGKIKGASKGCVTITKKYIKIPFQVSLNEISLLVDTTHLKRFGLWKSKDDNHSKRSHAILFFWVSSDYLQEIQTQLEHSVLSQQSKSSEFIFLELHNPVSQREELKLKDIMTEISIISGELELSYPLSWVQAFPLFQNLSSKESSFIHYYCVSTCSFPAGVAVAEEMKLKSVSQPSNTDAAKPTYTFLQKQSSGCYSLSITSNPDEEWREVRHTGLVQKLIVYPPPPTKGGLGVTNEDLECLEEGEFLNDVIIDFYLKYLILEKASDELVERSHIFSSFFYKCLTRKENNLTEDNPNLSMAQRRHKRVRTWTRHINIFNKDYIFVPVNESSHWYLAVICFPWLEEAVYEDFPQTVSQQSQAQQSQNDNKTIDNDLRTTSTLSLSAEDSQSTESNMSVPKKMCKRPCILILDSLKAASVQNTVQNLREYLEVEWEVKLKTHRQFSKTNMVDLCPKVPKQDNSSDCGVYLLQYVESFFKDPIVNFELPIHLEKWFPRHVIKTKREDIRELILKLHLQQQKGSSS
Type of experiment: functional.

The subject of experiment [6] is Streptococcus sp. 'group A'. As to the kind of experiment: Streptococcus pyogenes SK(-)GAS viability under kanamycin – luminescence, BacTiterGlo, confirmation, counter-screen for streptokinase expression inhibitor project, dose response (AID 1900). Type of experiment: functional, organism-based. For orientation: Counterscreens check selectivity or assay interference.

Experiment [7] deals with Streptococcus. The experiment in a line: GAS UMAA2166 growth inhibition – luminescence, BacTiterGlo, counter-screen for streptokinase expression inhibitor project, dose response (AID 1915).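 Further: potency for reduction of bacterial viability or growth.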 Type of experiment: functional, organism-based.
The target of experiment [8] is T6, Eukaryotic translation initiation factor 2-alpha kinase 3 (Homo sapiens, UniProt Q9NZJ5).
T6 sequence (Q9NZJ5 whole entry): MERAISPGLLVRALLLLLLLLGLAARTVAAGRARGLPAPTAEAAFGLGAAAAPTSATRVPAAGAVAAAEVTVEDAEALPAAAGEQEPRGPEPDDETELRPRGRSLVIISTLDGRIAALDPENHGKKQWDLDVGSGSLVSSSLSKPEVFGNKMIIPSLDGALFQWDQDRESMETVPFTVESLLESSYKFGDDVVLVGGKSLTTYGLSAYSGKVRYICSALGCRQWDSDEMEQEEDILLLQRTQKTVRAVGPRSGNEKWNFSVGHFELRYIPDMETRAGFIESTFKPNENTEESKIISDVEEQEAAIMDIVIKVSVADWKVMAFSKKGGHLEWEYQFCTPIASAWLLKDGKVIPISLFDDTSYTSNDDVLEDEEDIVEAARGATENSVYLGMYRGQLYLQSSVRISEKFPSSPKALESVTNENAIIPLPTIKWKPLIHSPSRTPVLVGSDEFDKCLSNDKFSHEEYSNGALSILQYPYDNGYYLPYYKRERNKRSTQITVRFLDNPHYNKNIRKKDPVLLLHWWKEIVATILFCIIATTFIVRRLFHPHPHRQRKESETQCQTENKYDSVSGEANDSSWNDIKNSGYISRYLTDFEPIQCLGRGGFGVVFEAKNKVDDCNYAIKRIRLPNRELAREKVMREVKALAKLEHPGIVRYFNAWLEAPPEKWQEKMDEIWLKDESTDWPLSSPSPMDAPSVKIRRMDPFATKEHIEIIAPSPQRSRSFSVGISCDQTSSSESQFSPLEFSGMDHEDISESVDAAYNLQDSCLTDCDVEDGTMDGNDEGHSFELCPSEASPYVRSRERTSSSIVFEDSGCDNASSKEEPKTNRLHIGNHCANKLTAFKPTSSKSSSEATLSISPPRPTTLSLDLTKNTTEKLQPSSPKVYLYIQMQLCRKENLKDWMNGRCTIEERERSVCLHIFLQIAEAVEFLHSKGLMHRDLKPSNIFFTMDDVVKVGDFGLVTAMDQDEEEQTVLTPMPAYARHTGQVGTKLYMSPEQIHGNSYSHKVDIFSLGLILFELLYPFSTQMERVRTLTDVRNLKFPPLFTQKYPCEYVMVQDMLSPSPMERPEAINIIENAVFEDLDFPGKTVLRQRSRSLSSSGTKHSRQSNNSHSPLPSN
As to the kind of experiment: Counterscreen assay for PERK inhibitors: Dose response cell-based high throughput screening assay to measure inhibition of PERK at 6 hours. [Related pubchem assays: 1522, 1416 ]. In kind it is functional.

Experiment [9] concerns the target T6, Eukaryotic translation initiation factor 2-alpha kinase 3. As to the kind of experiment: Dose response cell-based high-throughput screening assay to measure PERK inhibition. [Related pubchem assays: 1416 ]. Type of experiment: functional.
In experiment [10] the target is Nonstructural protein 1 (Influenza A virus, UniProt Q194T2). Type of experiment: functional, Influenza A virus (A/California/07/2009(H1N1)).
Nonstructural protein 1, sequence (Q194T2 whole entry): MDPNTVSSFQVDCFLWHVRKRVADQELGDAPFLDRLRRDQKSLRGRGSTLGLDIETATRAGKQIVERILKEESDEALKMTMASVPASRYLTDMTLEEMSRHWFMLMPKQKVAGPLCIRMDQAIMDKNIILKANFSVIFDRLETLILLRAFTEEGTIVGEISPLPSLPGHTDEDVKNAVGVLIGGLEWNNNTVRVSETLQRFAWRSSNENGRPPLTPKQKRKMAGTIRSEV
A short description of experiment [11]: NIH-3T3 fibroblast cytotoxicity, dose response, cytotoxicity control, cell-based, fluorescence, Alamar Blue, secondary assay (AID 2327).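 Further: NIH-3T3 mouse fibroblasts cultured with fluconazole at 8 µg/mL.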 In kind it is functional. For orientation: Alamar Blue is a resazurin reagent that responds to reducing activity.
Experiment [12] is described as follows: fluconazole-exposed Candida albicans growth modulators – fluorescence, retest, confirmation (AID 2467). In kind it is functional, cell-based.
Experiment [13] in a line: blockers of HIV-1 envelope-mediated cell-cell fusion – cherry-pick, dose response (AID 652057). In kind it is functional, cell-based.

What is called EC50 is the concentration giving half of the maximal effect. What is called IC50 is the concentration at which inhibition is half-maximal. In general, AC50 refers to the midpoint of the concentration-response curve, whichever way the signal moves.

Molecules are shown by their SMILES. The source made the active and inactive calls.

Regarding `Cc1ccc(-c2cc(-c3cccc(F)c3)[nH]n2)c(O)c1`, the EC50 was 21.3 µM (active) in experiment [1], 7.23 µM (active) in experiment [6] and > 150 µM (not active) in experiment [7]. Besides, the IC50 in experiment [2] was 23.8 µM (active); in experiment [3], 12.2 µM (active); in [4] it was 47.2 µM (active); in experiment [5] it was 6.27 µM (active).

Take `Cc1nnc(O)nc1NCCN(C)C`: the EC50 in experiment [8] and in experiment [9] was > 55.7 µM (not active) in each case.

For the compound `Cn1cc([N+](=O)[O-])c(C(=O)NCc2ccco2)n1`, the EC50 in experiment [8] and in experiment [9] was > 55.7 µM (not active) throughout.

For the compound `O=C(CN1C(=O)COc2ccc(S(=O)(=O)N3CCOCC3)cc21)NCc1ccccn1`, the EC50 in experiment [8] and in experiment [9] was > 55.7 µM (not active) throughout.

Take `Cc1cc(C(=O)N=Nc2c(O)n(C)c3ccccc23)c(C)o1`: the IC50 in experiment [2] was > 100 µM (inactive); in experiment [3], 4.84 µM (active); in experiment [4], 2.71 µM (active); in experiment [5], 4.99 µM (active).

As to `O=[N+]([O-])c1ccc(C2NS(=O)(=O)N=C3CCCCCN32)cc1` (stereo not given), the concentration giving a half-maximal response (EC50) in [8] and in experiment [9] was > 55.7 µM (not active) throughout.

In the case of `CCOc1cc(C2NC(S)=NC(C)=C2C(=O)Nc2ccc(OC)cc2)ccc1O` (stereo not given), the concentration for a half-maximal effect (EC50) in [8] and in [9] was > 55.7 µM (not active) throughout.

Turning to `CN(C)c1ccc(N=Nc2cccc3ccoc23)cc1`, the IC50 in [10] is 39.3 µM (active); in experiment [2], 8.97 µM (active); in experiment [3], 8.07 µM (active); in experiment [4] it was 14.8 µM (active); in experiment [5], 3.81 µM (active).

As to `Oc1nc(Nc2ccccc2)sc1/C=C1\C=Nc2ccccc21`, the EC50 in experiment [1] is > 150 µM (not active); in experiment [11] it was 17.9 µM (active); in experiment [12], 1.73 µM (active); in [6], 17.3 µM (active); in experiment [7], 26.6 µM (active). Also, the IC50 in experiment [2] was > 100 µM (inactive); in experiment [3] it was > 100 µM (inactive); in experiment [4] it was 70.5 µM (active); in [5], 6.51 µM (active).

Turning to `C[C@@H]1CN([C@H](C)CO)C(=O)c2cccc(NS(=O)(=O)c3ccc(F)cc3)c2O[C@@H]1CN(C)Cc1ccc(C(F)(F)F)cc1`, in experiment [13], the concentration at half-maximal activity (AC50) is < 0.26 µM (active).

As for `Cc1ccc(COc2ccc(/C=N/O)cc2)cc1`, the IC50 in [2] was 23.5 µM (active); in experiment [3], 14.6 µM (active); in experiment [4], 17.2 µM (active); in [5] it was 5.63 µM (active).

Source of the values: ChEMBL document CHEMBL1201862, “PubChem BioAssay data set” (2004).
